Measurements reported in US20260191782A1, “URIDINE TRIACETATE AMORPHOUS FORMULATION AND USES THEREOF” (PHARMA CINQ, LLC, priority 2022, published 2026).

Assays:
[1] = cited from earlier work
[2] = tested on: primary mitochondrial disease; test: Treatment of primary mitochondrial disease (patient example); type: in vivo, human; details: PMD patient, dose increased to 100 mg/kg/dose twice daily
Text: A patient is diagnosed with primary mitochondrial disease by identification of pathogenic mutations known to impair mitochondrial oxidative phosphorylation (by whole exome sequencing and comparison with a database of known pathogenic genetic variants) combined with symptoms consistent with PMD, in this case including recurrent epileptic seizures, developmental delays, proximal renal tubular acidosis requiring bicarbonate supplementation, and exercise intolerance with early onset of fatigue during exertion. […] Within about one week, seizure frequency declines by more than 50%, and daily bicarbonate requirements to compensate for excessive urinary excretion due to proximal tubular acidosis is reduced from 200 milliEquivalents per day to less than 25. With the therapeutic goal of maintaining plasma bicarbonate above 20 mEq/liter. After several additional weeks, endurance during exercise improves, as measured by timed walking distance and standard clinical measures of subjective fatigue.

CC(=O)OC[C@H]1O[C@@H](n2ccc(=O)[nH]c2=O)[C@H](OC(C)=O)[C@@H]1OC(C)=O [Uridine triacetate, 2′,3′,5′-Tri-O-acetyluridine]
solubility in water [1]: approximately 10 milligrams per milliliter | seizure frequency [2]: decreases further
